Data published in patent US20110178072A1, “STEREOSPECIFICITY OF METHYLSULFINYL REDUCTION” (priority 2008, published 2011).

System: ATF3
Experiment: Western blot analysis of ATF3 in SK-Hep1 cells grown on Met and Met sulfoxide media
Format: cell-based, human
Settings: 72 hours, compared with cells on Met or Met-SO
Description: Analysis of SK-Hep1 and fRMsr-transfected SK-Hep1 cells—SK-Hep1 and fRMsr-transfected SK-Hep1 cells were plated in 6-well plates at 7.5×10^4 cells/well in regular DMEM medium. The medium was changed to Met-free DMEM supplemented with either Met or individual Met sulfoxides at 24 hours after plating. Cells were then collected every 24 hours until 96 hours. Protein concentration was measured by the Bradford assay and the samples were probed by standard immunoblot assays with polyclonal MsrA (kindly provided by Bertrand Friguet), cystathionine beta synthase (CBS) (kindly provided by Ruma Banerjee), and activating transcription factor 3 (ATF3) (Santa Cruz Biotechnology) antibodies.

C[S@@+]([O-])CC[C@H](N)C(=O)O [Met-RO, methionine-R-sulfoxide]
Expression levels of ATF3: low expression levels of ATF3
